The text below walks through data of patent US10562909B2, “Fused quadracyclic compounds, compositions and uses thereof” (Tabomedex Biosciences, LLC, priority 2016, dated 2020).

This assay deals with MAPKAPK2 (Homo sapiens, UniProt P49137). In words: MK2 Enzymatic Assay. The class given is biochemical. To be noted: 0.5 nM MAPKAPK2, 3 μM ATP, 2 μM Ser/Thr4 peptide, 23° C., values given as concentration bins. The gist of the method: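 MAPKAPK2 (2× stock 1 nM) and peptide substrate (2× 4 μM) were preincubated 20 min, then started with ATP (2× stock 6 μM) for 120 min. After 120 min development, coumarin/fluorescein emission ratio gave percent phosphorylation against 0% and 100% phosphopeptide controls.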
MAPKAPK2, sequence (P49137 whole entry, species assumed): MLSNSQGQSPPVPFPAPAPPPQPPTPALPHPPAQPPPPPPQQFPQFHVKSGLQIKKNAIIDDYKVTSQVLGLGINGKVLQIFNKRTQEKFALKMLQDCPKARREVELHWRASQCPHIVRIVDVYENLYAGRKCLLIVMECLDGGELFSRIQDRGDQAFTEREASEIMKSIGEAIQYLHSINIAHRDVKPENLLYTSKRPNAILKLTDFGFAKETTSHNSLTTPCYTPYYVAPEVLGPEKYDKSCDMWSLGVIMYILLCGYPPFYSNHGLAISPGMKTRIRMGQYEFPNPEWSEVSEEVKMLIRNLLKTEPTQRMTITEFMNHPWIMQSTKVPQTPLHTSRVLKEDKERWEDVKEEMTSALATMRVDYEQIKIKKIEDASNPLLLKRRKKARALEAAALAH

The IC50 is the concentration that inhibits the measured activity by half. Regarding `CN(C)C[C@@H]1CN(c2ccc3c(c2)Cn2cc(-c4ccc(C#N)cc4)cc2-c2nccn2-3)C[C@H]1O` [Compound 138, 4-(7-((3R,4S)-3-((dimethylamino)methyl)-4-hydroxypyrrolidin-1-yl)-9H-benzo[e]imidazo[2,1-c]pyrrolo[1,2-a][1,4]diazepin-12-yl)benzonitrile], the IC50 is less than 50 nM.
The result for `CC(C)(CO)NC[C@@H]1CCN(c2ccc3c(c2)Cn2cc(-c4ccc(C#N)cc4)cc2-c2nccn2-3)C1` [Compound 141, (S)-4-(7-(3-(((1-hydroxy-2-methylpropan-2-yl)amino)methyl)pyrrolidin-1-yl)-9H-benzo[e]imidazo[2,1-c]pyrrolo[1,2-a][1,4]diazepin-12-yl)benzonitrile] reads less than 50 nM.
Then `N#Cc1ccc(-c2cc3n(c2)Cc2cc(N4CC[C@@H](CN5CCC(O)CC5)C4)ccc2-n2ccnc2-3)cc1` [Compound 142, (S)-4-(7-(3-((4-hydroxypiperidin-1-yl)methyl)pyrrolidin-1-yl)-9H-benzo[e]imidazo[2,1-c]pyrrolo[1,2-a][1,4]diazepin-12-yl)benzonitrile], with less than 50 nM.
For `N#Cc1ccc(-c2cc3n(c2)Cc2cc(N4CC[C@H](CN5CCC(O)CC5)C4)ccc2-n2ccnc2-3)cc1` [Compound 143, (R)-4-(7-(3-((4-hydroxypiperidin-1-yl)methyl)pyrrolidin-1-yl)-9H-benzo[e]imidazo[2,1-c]pyrrolo[1,2-a][1,4]diazepin-12-yl)benzonitrile], the IC50 was less than 50 nM.
For `CN[C@@H]1CCN(c2ccc3c(c2)Cn2c(cc(-c4ccc(C#N)cc4)c2Cl)-c2nncn2-3)C1` [Compound 166, (R)-4-(11-chloro-7-(3-(methylamino)pyrrolidin-1-yl)-9H-benzo[e]pyrrolo[1,2-a][1,2,4]tri-azolo[3,4-c][1,4]diazepin-12-yl)benzonitrile], the IC50 was in the range of 100 to 200 nM.
`CN[C@H]1CCN(c2ccc3c(c2)Cn2c(cc(-c4ccc(C#N)cc4)c2Cl)-c2nncn2-3)C1` [Compound 167, (S)-4-(11-chloro-7-(3-(methylamino)pyrrolidin-1-yl)-9H-benzo[e]pyrrolo[1,2-a][1,2,4]tri-azolo[3,4-c][1,4]diazepin-12-yl)benzonitrile] returned an IC50 of 50 to 100 nM.
`CN1CC2(CCN(c3ccc4c(c3)Cn3c(cc(-c5ccc(C#N)cc5)c3Cl)-c3nncn3-4)C2)C1` [Compound 168, 4-(11-chloro-7-(2-methyl-2,6-diazaspiro[3.4]octan-6-yl)-9H-benzo[e]pyrrolo[1,2-a][1,2,4]triazolo[3,4-c][1,4]diazepin-12-yl)benzonitrile]: the IC50 is 100 to 200 nM.
Regarding `N#Cc1ccc(-c2cc3n(c2Cl)Cc2cc(N4CC[C@@H](CN)C4)ccc2-n2cnnc2-3)cc1` [Compound 169, (S)-4-(7-(3-(aminomethyl)pyrrolidin-1-yl)-11-chloro-9H-benzo[e]pyrrolo[1,2-a][1,2,4]tri-azolo[3,4-c][1,4]diazepin-12-yl)benzonitrile], the IC50 was less than 50 nM.
On to `CN(C)C[C@@H]1CCN(c2ccc3c(c2)Cn2c(cc(-c4ccc(C#N)cc4)c2Cl)-c2nncn2-3)C1` [Compound 170, (S)-4-(11-chloro-7-(3-((dimethylamino)methyl)pyrrolidin-1-yl)-9H-benzo[e]pyrrolo[1,2-a] [1,2,4]triazolo[3,4-c][1,4]diazepin-12-yl)benzonitrile], for which the IC50 fell in the range of 50 to 100 nM.
The compound `N#Cc1ccc(-c2cc3n(c2Cl)Cc2cc(N4CC[C@H](CN)C4)ccc2-n2cnnc2-3)cc1` [Compound 171, (R)-4-(7-(3-(aminomethyl)pyrrolidin-1-yl)-11-chloro-9H-benzo[e]pyrrolo[1,2-a][1,2,4]tri-azolo[3,4-c][1,4]diazepin-12-yl)benzonitrile] came in with an IC50 of 50 to 100 nM.
Compound `CNC[C@@H]1CCN(c2ccc3c(c2)Cn2c(cc(-c4ccc(C#N)cc4)c2Cl)-c2nncn2-3)C1` [Compound 173, (S)-4-(11-chloro-7-(3-((methylamino)methyl)pyrrolidin-1-yl)-9H-benzo[e]pyrrolo[1,2-a][1,2,4]triazolo[3,4-c][1,4]diazepin-12-yl)benzonitrile] gave an IC50 of less than 50 nM.
`Cc1nnc2n1-c1ccc(N3CC[C@@H](CN(C)C)C3)cc1Cn1cc(-c3ccc(C#N)cc3)cc1-2` [Compound 228, 4-(7-((S)-3-((dimethylamino)methyl)pyrrolidin-1-yl)-3-methyl-9H-benzo[e]pyrrolo[1,2-a] [1,2,4]triazolo[3,4-c][1,4]diazepin-12-yl)benzonitrile] yielded an IC50 of 50 to 100 nM.
In turn, `Cc1nnc2n1-c1ccc(N3CC[C@H](CN(C)C)C3)cc1Cn1cc(-c3ccc(C#N)cc3)cc1-2` [Compound 229, 4-(7-((R)-3-((dimethylamino)methyl)pyrrolidin-1-yl)-3-methyl-9H-benzo[e]pyrrolo[1,2-a] [1,2,4]triazolo[3,4-c][1,4]diazepin-12-yl)benzonitrile] showed an IC50 of 50 to 100 nM.
Regarding `Cc1nnc2n1-c1ccc(N3CC[C@H](N)C3)cc1Cn1cc(-c3ccc(C#N)cc3)cc1-2` [Compound 230, 4-(7-((S)-3-aminopyrrolidin-1-yl)-3-methyl-9H-benzo[e]pyrrolo[1,2-a][1,2,4]triazolo[3,4-c][1,4]diazepin-12-yl)benzonitrile], the IC50 lay in the range of 50 to 100 nM.
Turning to `CN(C)C1CN(c2ccc3c(c2)Cn2cc(-c4ccc(C#N)cc4)cc2-c2nnnn2-3)C1` [Compound 235, 4-(7-(3-(dimethylamino)azetidin-1-yl)-9H-benzo[e]pyrrolo[1,2-a]tetrazolo[5,1-c][1,4]diazepin-12-yl)benzonitrile], the 50% inhibitory concentration (IC50) lay within 100 to 200 nM.
Consider `CNCC1CCN(c2ccc3c(c2)Cn2cc(-c4ccc(C#N)cc4)cc2-c2nnnn2-3)C1` (stereo not shown) [Compound 239, 4-(7-(3-((methylamino)methyl)pyrrolidin-1-yl)-9H-benzo[e]pyrrolo[1,2-a]tetrazolo[5,1-c] [1,4]diazepin-12-yl)benzonitrile], for which the IC50 is less than 50 nM.
`CN1CC2(CCN(c3ccc4c(c3)Cn3cc(-c5ccc(C#N)cc5)cc3-c3nnnn3-4)C2)C1` [Compound 240, 4-(7-(2-methyl-2,6-diazaspiro[3.4]octan-6-yl)-9H-benzo[e]pyrrolo[1,2-a]tetrazolo[5,1-c] [1,4]diazepin-12-yl)benzonitrile] gave an IC50 of less than 50 nM.
As for `CN(C)C[C@@H]1CCN(c2ccc3c(c2)Cn2cc(-c4ccc(C#N)cc4)cc2-c2nnnn2-3)C1` [Compound 241, (S)-4-(7-(3-((dimethylamino)methyl)pyrrolidin-1-yl)-9H-benzo[e]pyrrolo[1,2-a]tetrazolo[5,1-c][1,4]diazepin-12-yl)benzonitrile], the IC50 was less than 50 nM.
The result for `C[C@@H]1CN(c2ccc3c(c2)Cn2cc(-c4ccc(C#N)cc4)cc2-c2nnnn2-3)C[C@H](C)N1` [Compound 242, 4-(7-(cis-3,5-dimethylpiperazin-1-yl)-9H-benzo[e]pyrrolo[1,2-a]tetrazolo[5,1-c][1,4]diazepin-12-yl)benzonitrile] reads 50 to 100 nM; that for `N#Cc1ccc(-c2cc3n(c2)Cc2cc(N4CC5(CCNCC5)C4)ccc2-n2nnnc2-3)cc1` [Compound 245, 4-(7-(2,7-diazaspiro[3.5]nonan-2-yl)-9H-benzo[e]pyrrolo[1,2-a]tetrazolo[5,1-c][1,4]diazepin-12-yl)benzonitrile], 100 to 200 nM.
In turn, `CNCC1CN(c2ccc3c(c2)Cn2cc(-c4ccc(C#N)cc4)cc2-c2ncnn2-3)C1` [Compound 250, 4-(7-(3-((methylamino)methyl)azetidin-1-yl)-9H-benzo[e]pyrrolo[1,2-a][1,2,4]triazolo[5,1-c] [1,4]diazepin-12-yl)benzonitrile] had an IC50 of 50 to 100 nM.
As for `CN1CC2(CCN(c3ccc4c(c3)Cn3cc(-c5ccc(C#N)cc5)cc3-c3ncnn3-4)C2)C1` [Compound 253, 4-(7-(2-methyl-2,6-diazaspiro[3.4]octan-6-yl)-9H-benzo[e]pyrrolo[1,2-a][1,2,4]triazolo[5,1-c][1,4]diazepin-12-yl)benzonitrile], the half-maximal inhibitory concentration (IC50) was less than 50 nM.
In turn, `CN(C)C[C@@H]1CCN(c2ccc3c(c2)Cn2cc(-c4ccc(C#N)cc4)cc2-c2ncnn2-3)C1` [Compound 254, (S)-4-(7-(3-((dimethylamino)methyl)pyrrolidin-1-yl)-9H-benzo[e]pyrrolo[1,2-a][1,2,4]triazolo[5,1-c][1,4]diazepin-12-yl)benzonitrile] displayed an IC50 of 50 to 100 nM.
`CN(C)C[C@H]1CCN(c2ccc3c(c2)Cn2cc(-c4ccc(C#N)cc4)cc2-c2ncnn2-3)C1` [Compound 255, (R)-4-(7-(3-((dimethylamino)methyl)pyrrolidin-1-yl)-9H-benzo[e]pyrrolo[1,2-a][1,2,4]riazolo[5,1-c][1,4]diazepin-12-yl)benzonitrile]: the IC50 is less than 50 nM.
Turning to `N#Cc1ccc(-c2cc3n(c2)Cc2cc(N4CCC5(CNC5)C4)ccc2-n2ncnc2-3)cc1` [Compound 256, 4-(7-(2,6-diazaspiro[3.4]octan-6-yl)-9H-benzo[e]pyrrolo[1,2-a][1,2,4]triazolo[5,1-c][1,4]diazepin-12-yl)benzonitrile], the IC50 is less than 50 nM.
`N#Cc1ccc(-c2cc3n(c2)Cc2cc(N4CC5(CCNC5)C4)ccc2-n2ncnc2-3)cc1` [Compound 258, 4-(7-(2,6-diazaspiro[3.4]octan-2-yl)-9H-benzo[e]pyrrolo[1,2-a][1,2,4]triazolo[5,1-c][1,4]diazepin-12-yl)benzonitrile] returned an IC50 of 50 to 100 nM.
As to `CN(C)[C@@H]1CCN(c2ccc3c(c2)Cn2cc(-c4ccc(C#N)cc4)cc2-c2ncnn2-3)C1` [Compound 259, (R)-4-(7-(3-(dimethylamino)pyrrolidin-1-yl)-9H-benzo[e]pyrrolo[1,2-a][1,2,4]triazolo[5,1-c][1,4]diazepin-12-yl)benzonitrile], the IC50 was less than 50 nM.
In turn, `CN(C)[C@H]1CCN(c2ccc3c(c2)Cn2cc(-c4ccc(C#N)cc4)cc2-c2ncnn2-3)C1` [Compound 260, (S)-4-(7-(3-(dimethylamino)pyrrolidin-1-yl)-9H-benzo[e]pyrrolo[1,2-a][1,2,4]triazolo[5,1-c][1,4]diazepin-12-yl)benzonitrile] displayed an IC50 of less than 50 nM.
